The record followed here is publication PMC8041284, “Tunable Methacrylamides for Covalent Ligand Directed Release Chemistry” (Journal of the American Chemical Society, 2021).

Molecules are shown by their SMILES. Where two headings read alike, the source gives them in different places.

This assay deals with BTK (Homo sapiens, UniProt Q06187).
Where [1] appears, read: 0.75 uM BTK, […] probe 3l, 15 min preincubation, 10 µM, inhibitor, BTK inhibition (%).
Setting [2] is: 0.75 uM BTK, […] probe 3l, 15 min preincubation; 10 µM; inhibitor.

Chain of BTK (Q06187 402-655 limits assumed): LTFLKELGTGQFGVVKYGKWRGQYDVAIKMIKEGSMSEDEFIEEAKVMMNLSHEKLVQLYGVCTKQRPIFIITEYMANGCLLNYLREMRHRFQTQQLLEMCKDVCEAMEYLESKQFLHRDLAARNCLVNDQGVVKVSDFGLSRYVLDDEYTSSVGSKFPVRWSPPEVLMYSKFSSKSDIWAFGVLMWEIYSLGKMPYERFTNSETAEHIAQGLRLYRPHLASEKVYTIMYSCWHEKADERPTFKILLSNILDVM

As to `Cc1ccccc1C(=O)Nc1ccc(C(=O)N2CCCC(N(C)C)c3ccccc32)cc1` (stereo not drawn) [PCM-0095424], the “BTK inhibition (%)” value under setting [1] came to 70%. Turning to `CCOC(=O)C1=C[C@@H](OC(CC)CC)[C@H](NC(C)=O)[C@@H](N)C1` [PCM-0095436], the “BTK inhibition (%)” value under setting [2] was -10.2%. The same measure, in the same setting: with `O=C(O[C@H]1CN2CCC1CC2)N1CCc2ccccc2[C@@H]1c1ccccc1` [PCM-0095538] the figure was -27.2%; with `CN1[C@@H]2CC[C@H]1CC(OC(=O)[C@H](CO)c1ccccc1)C2` (stereo partly drawn) [PCM-0095561], -14.8%. Take `CN1CCc2cc3c(cc2[C@H]1[C@@H]1OC(=O)c2c1ccc1c2OCO1)OCO3` [PCM-0095582]: the “BTK inhibition (%)” value (10 µM; inhibitor) is -0.8%. `CC(=O)OC(C)(C)/C=C/C(=O)[C@](C)(O)[C@H]1[C@H](O)C[C@@]2(C)[C@@H]3CC=C4[C@@H](C[C@H](O)C(=O)C4(C)C)[C@]3(C)C(=O)C[C@]12C` [PCM-0214542]: under “10 µM; inhibitor”, the “BTK inhibition (%)” value is recorded as -10%. For `COc1ccc2[nH]c([S@@+]([O-])Cc3ncc(C)c(OC)c3C)nc2c1` [PCM-0214571], under setting [1], the “BTK inhibition (%)” value was -13.2%. `CC1=C(O)C(=O)C=C2C1=CC=C1[C@@]2(C)CC[C@@]2(C)[C@@H]3C[C@](C)(C(=O)O)CC[C@]3(C)CC[C@]12C` [PCM-0214611]: the “BTK inhibition (%)” value under setting [2] was 67.7%. For `CC(=O)O[C@H]1C[C@@H]2CC[C@@H]3[C@H](CC[C@@]4(C)[C@H]3C[C@H]([N+]3(C)CCCCC3)[C@@H]4OC(C)=O)[C@@]2(C)C[C@@H]1N1CCCCC1` [PCM-0214623], the “BTK inhibition (%)” value under setting [2] was -6.2%.

With `CC(C)[N+]1(C)[C@@H]2CC[C@H]1CC(OC(=O)C(CO)c1ccccc1)C2` (stereo partly drawn) [PCM-0214646], under setting [2], the “BTK inhibition (%)” value is on record as -24.9%. Regarding `C[C@@H]1CC[C@@]2(OC1)O[C@H]1C[C@H]3[C@@H]4CC=C5C[C@@H](O[C@@H]6O[C@H](CO)[C@@H](O[C@@H]7O[C@@H](C)[C@H](O)[C@@H](O)[C@H]7O)[C@H](O)[C@H]6O[C@@H]6O[C@@H](C)[C@H](O)[C@@H](O)[C@H]6O)CC[C@]5(C)[C@H]4CC[C@]3(C)[C@H]1[C@@H]2C` [PCM-0214660], the “BTK inhibition (%)” value under setting [2] is on record as 38.1%. As to `CC(=O)O[C@H]1C[C@@H]2CC[C@@H]3[C@H](CC[C@@]4(C)[C@H]3C[C@H]([N+]3(C)CCCCC3)[C@@H]4OC(C)=O)[C@@]2(C)C[C@@H]1[N+]1(C)CCCCC1` [PCM-0214687], the “BTK inhibition (%)” value under setting [2] is -21%. Turning to `CO/N=C(\C(=O)N[C@@H]1C(=O)N2C(C(=O)O)=C(CSC(=O)c3ccco3)CS[C@H]12)c1csc(N)n1` [PCM-0214692], the “BTK inhibition (%)” value under setting [1] is given as 0%. On to `CC[C@H]1OC(=O)[C@H](C)[C@@H](O[C@H]2C[C@@](C)(OC)[C@@H](O)[C@H](C)O2)[C@H](C)[C@@H](O[C@@H]2O[C@H](C)C[C@H](N(C)C)[C@H]2O)[C@](C)(O)C[C@@H](C)C(=O)[C@H](C)[C@@H](O)[C@]1(C)O` [PCM-0214693], for which the “BTK inhibition (%)” value under setting [1] is given as 5.4%. Regarding `CC(C)=CCC[C@]1(C)C=Cc2c(O)c3c(c(CC=C(C)C)c2O1)O[C@]12C(=C[C@@H]4C[C@H]1C(C)(C)O[C@@]2(C/C=C(/C)C(=O)O)C4=O)C3=O` [PCM-0214728], under setting [2], the “BTK inhibition (%)” value is reported as -1.6%. Regarding `CC(C)[C@]12O[C@H]1[C@@H]1O[C@]13[C@]1(O[C@H]1C[C@H]1C4=C(CC[C@@]13C)C(=O)OC4)[C@@H]2O` [PCM-0214731], under setting [2], the “BTK inhibition (%)” value turned out to be 6.2%. As to `O=C(O[C@H]1C[N+]2(CCCOc3ccccc3)CCC1CC2)C(O)(c1cccs1)c1cccs1` [PCM-0214751], under setting [2], the “BTK inhibition (%)” value is given as -24.1%.

Regarding `CC[C@H]1OC(=O)[C@H](C)[C@@H](O[C@H]2C[C@@](C)(OC)[C@@H](O)[C@H](C)O2)[C@H](C)[C@@H](O[C@@H]2O[C@H](C)C[C@H](N(C)C)[C@H]2O)[C@](C)(O)C[C@@H](C)CN(C)[C@H](C)[C@@H](O)[C@]1(C)O` [PCM-0214754], under setting [1], the “BTK inhibition (%)” value is given as 1.6%. For the molecule `C[C@@H]1O[C@@H](O[C@H]2C[C@@H](O)[C@]3(CO)[C@H]4[C@H](O)C[C@]5(C)[C@@H](C6=CC(=O)OC6)CC[C@]5(O)[C@@H]4CC[C@]3(O)C2)[C@H](O)[C@H](O)[C@H]1O` [PCM-0214805], the “BTK inhibition (%)” value under setting [2] is listed as -5.4%. For the molecule `CCN(Cc1ccc(Cl)nc1)/C(=C/[N+](=O)[O-])NC` [PCM-0214807], under setting [2], the “BTK inhibition (%)” value amounted to 7%. For `CC(C(=O)O)c1cccc(Oc2ccccc2)c1` (stereo not drawn) [PCM-0214813], the “BTK inhibition (%)” value under setting [1] is 4.8%. With `COc1ccc2[nH]c([S@@+]([O-])Cc3ncc(C)c(OC)c3C)nc2c1` [PCM-0214815], the “BTK inhibition (%)” value under setting [1] was -10.9%. Turning to `CCC(=O)NS(=O)(=O)c1ccc(-c2c(-c3ccccc3)noc2C)cc1` [PCM-0214825], under setting [1], the “BTK inhibition (%)” value turned out to be 5.5%. For the molecule `CC[N+](C)(CC)CCOC(=O)C(O)(c1ccccc1)c1ccccc1` [PCM-0214829], under setting [2], the “BTK inhibition (%)” value was -19.5%.

On to `Nc1ccc(S(=O)(=O)Nc2ncccn2)cc1` [PCM-0214831], for which the “BTK inhibition (%)” value under setting [1] is recorded as 10.9%. For the molecule `CN1CC=C(c2ccccc2)CC1` [PCM-0214851], the “BTK inhibition (%)” value (10 µM; inhibitor) was 3.1%. Still for that read-out and setting: for `CC1=C2C(=O)[C@H]3[C@@H](CC=C4C[C@@H](O)CC[C@@]43C)[C@@H]2CC[C@]12O[C@@H]1C[C@H](C)CN[C@H]1[C@H]2C` [PCM-0214856] the value was -12.5%. With `CCN(CC)CCOC(=O)C(O)(c1ccccc1)c1ccccc1` [PCM-0214873], the “BTK inhibition (%)” value under setting [2] stood at 8.6%.

In the case of `CC1(C)[C@@H](O[C@H]2O[C@H](C(=O)O)[C@@H](O)[C@H](O)[C@H]2O[C@@H]2O[C@H](C(=O)O)[C@@H](O)[C@H](O)[C@H]2O)CC[C@]2(C)[C@H]3C(=O)C=C4[C@@H]5C[C@@](C)(C(=O)O)CC[C@]5(C)CC[C@@]4(C)[C@]3(C)CC[C@@H]12` [PCM-0214876], the “BTK inhibition (%)” value under setting [1] is 35.9%. Consider `COC(=O)Nc1nc2ccccc2[nH]1` [PCM-0214885], for which, under setting [2], the “BTK inhibition (%)” value is reported as -9.3%.

`CC(=O)Oc1ccccc1C(=O)O` [PCM-0214911]: under setting [1], the “BTK inhibition (%)” value is given as 1.6%.

For `N[C@@H](C=O)[C@@H](O)[C@H](O)[C@H](O)CO` [PCM-0214928], the “BTK inhibition (%)” value under setting [1] was -6.2%. `C=C(C)[C@H]1Cc2c(ccc3c2O[C@@H]2COc4cc(OC)c(OC)cc4[C@@H]2C3=O)O1` [PCM-0214933]: the “BTK inhibition (%)” value under setting [2] was 6.2%. `C[C@H](CCC(=O)NCCS(=O)(=O)O)[C@H]1CC[C@H]2[C@@H]3[C@@H](O)C[C@@H]4C[C@H](O)CC[C@]4(C)[C@H]3CC[C@]12C` [PCM-0214942]: the “BTK inhibition (%)” value under setting [1] is 4.7%. Turning to `COC1=C[C@@H]2[C@@H]3Cc4ccc(OC)c(O)c4[C@]2(CCN3C)CC1=O` [PCM-0214970], the “BTK inhibition (%)” value (10 µM, inhibitor) came to 0%. Take `C=C[C@@H]1C2=CCOC(=O)C2=CO[C@H]1O[C@@H]1O[C@H](CO)[C@@H](O)[C@H](O)[C@H]1O` [PCM-0214971]: the “BTK inhibition (%)” value under setting [2] was -0.8%. As to `O=C(/C=C/c1ccccc1)OC[C@H]1O[C@@H](O[C@@H]2OC=C[C@H]3[C@H](O)[C@@H]4O[C@]4(CO)[C@@H]23)[C@H](O)[C@@H](O)[C@@H]1O` [PCM-0214975], under setting [2], the “BTK inhibition (%)” value is on record as -1.6%. Regarding `Cc1c([C@H](C)[C@@H]2NC[C@@H](C)C[C@H]2O)ccc2c1C[C@H]1[C@H]2CC=C2C[C@@H](O)CC[C@@]21C` [PCM-0214977], the “BTK inhibition (%)” value (10 µM; inhibitor) was -2.3%. Regarding `C[C@H](O)[C@H](O)[C@@H](O)[C@@H](O)C=O` [PCM-0214991], the “BTK inhibition (%)” value under setting [1] was -11.7%.

Turning to `COc1ccc(/C=C/c2cc(OC)cc(OC)c2)cc1` [PCM-0214992], for the setting “10 µM; inhibitor”, the “BTK inhibition (%)” value turned out to be 34.2%. Regarding `CN1C2=C3N=c4ccccc4=C3CCN2C(=O)c2ccccc21` [PCM-0215051], under setting [1], the “BTK inhibition (%)” value is 4.7%. For `N[C@@H](C=O)[C@@H](O)[C@H](O)[C@H](O)CO` [PCM-0215073], the “BTK inhibition (%)” value under setting [1] is recorded as -2.8%. For `CC(=O)N1C[C@H](O)C[C@H]1C(=O)O` [PCM-0215090], the “BTK inhibition (%)” value under setting [2] is 8.6%. Regarding `C=C[C@]1(C)C[C@@H](OC(=O)CSCCN(CC)CC)[C@]2(C)[C@H](C)CC[C@]3(CCC(=O)[C@H]32)[C@@H](C)[C@@H]1O` [PCM-0215106], the “BTK inhibition (%)” value under setting [1] is reported as -8.5%. Take `Cc1cc(NS(=O)(=O)c2ccc(N)cc2)no1` [PCM-0215124]: the “BTK inhibition (%)” value under setting [1] worked out at 7%. In the case of `COc1ccc(C=O)cc1O` [PCM-0215127], the “BTK inhibition (%)” value (10 µM; inhibitor) is on record as -7.8%. In the case of `CCCC(CCC)C(=O)O` [PCM-0215159], under setting [1], the “BTK inhibition (%)” value was 6.9%.

For the molecule `CN[C@H]1[C@H](O)[C@H](O[C@@H]2[C@@H](O)[C@H](O[C@H]3O[C@H](C(C)O)[C@@H](O)[C@H](O)[C@H]3N)[C@@H](N)C[C@H]2N)OC[C@@]1(C)O` (stereo partly drawn) [PCM-0215175], the “BTK inhibition (%)” value (10 µM; inhibitor) came to 6%. Turning to `O=C1O[C@H]([C@@H](O)CO)C(O)=C1O` [PCM-0215215], the “BTK inhibition (%)” value under setting [1] is given as -6.8%. For the molecule `C[C@@H]1O[C@@H]1P(=O)(O)O` [PCM-0215255], under setting [1], the “BTK inhibition (%)” value was -21%. As to `CC(=O)OC1CN2CCC1CC2` (stereo not drawn) [PCM-0215275], the “BTK inhibition (%)” value under setting [2] was found to be 4.7%.

Consider `Nc1nc2[nH]cc(CCc3ccc(C(=O)N[C@@H](CCC(=O)O)C(=O)O)cc3)c2c(=O)[nH]1` [PCM-0215446], for which the “BTK inhibition (%)” value under setting [1] is -10.2%.

On to `CN1CCN(C(=O)C2C3CCC(O3)C2C(=O)O)CC1` (stereo not drawn) [PCM-0215448], for which the “BTK inhibition (%)” value under setting [2] is listed as -11.1%. In the case of `CC(C)OC(=O)[C@H](C)N[P@](=O)(CO[C@H](C)Cn1cnc2c(N)ncnc21)Oc1ccccc1` [PCM-0215482], the “BTK inhibition (%)” value under setting [2] is recorded as -3.1%.

`O=C(Nc1ccc2c(O)cc(S(=O)(=O)O)cc2c1)Nc1ccc2c(O)cc(S(=O)(=O)O)cc2c1` [PCM-0215497]: the “BTK inhibition (%)” value under setting [1] is 21.6%.

`CN1C(=O)[C@@]23C[C@]4([C@]56C[C@@]78SS[C@@](CO)(C(=O)N7[C@H]5Nc5ccccc56)N(C)C8=O)c5ccccc5N[C@@H]4N2C(=O)[C@]1(CO)SS3` [PCM-0215602]: the “BTK inhibition (%)” value (10 µM; inhibitor) is 5.4%. The same measure, in the same setting: for `Nc1ncnc2c1ccn2[C@@H]1O[C@H](CO)[C@@H](O)[C@H]1O` [PCM-0215658] the value was 10.8%; for `CCCCCc1cc(O)cc(O)c1` [PCM-0215917], -13.9%.

In the case of `O=C/C=C/c1ccccc1` [PCM-0215920], the “BTK inhibition (%)” value under setting [2] is recorded as 3.1%.

In the case of `O=C(O)C1C2CCC(O2)C1C(=O)O` (stereo not drawn) [PCM-0215947], under setting [2], the “BTK inhibition (%)” value was -7.7%.
